Laboratory results published in the supplement of paper PMC4862054.
Several values for one entry are separate records, joined by “and”; a condition that tells them apart may be missing. Equal entries are not always repeated.

Tests used:
Test in all cases: normalised viability (% of control), CellTiter-Blue; higher = more viable cells (about 100 = DMSO control)
[1] = test system: MDA-MB-231; details: incubation time: 72 h
In short: (§1)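 Each value is normalised viability at a single listed concentration of the series. Breast cancer cell lines in 384-well plates were incubated 72 h with compound and read by CellTiter-Blue fluorescence at 560/590 nm, with vehicle set to 100 and a positive kill control to 0 on every plate.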

[2] = test system: HCC1937; details: incubation time: 72 h
In short: as §1

[3] = test system: CAL-51; details: incubation time: 72 h
In short: as §1

[4] = test system: DU-4475; details: incubation time: 72 h
In short: as §1

[5] = test system: SK-BR-3; details: incubation time: 72 h
In short: as §1

[6] = test system: BT-474; details: incubation time: 72 h
In short: as §1

[7] = test system: HCC1599; details: incubation time: 72 h
In short: as §1

[8] = test system: MDA-MB-231; details: incubation time: 72 h; remark: listed apart in the source
In short: as §1

[9] = test system: CAL-120; details: incubation time: 72 h
In short: as §1

[10] = test system: HCC1937; details: incubation time: 72 h; remark: listed apart in the source
In short: as §1

[11] = test system: Hs578T; details: incubation time: 72 h
In short: as §1

[12] = test system: CAL-85-1; details: incubation time: 72 h
In short: as §1

[13] = test system: CAL-51; details: incubation time: 72 h; remark: listed apart in the source
In short: as §1

[14] = test system: MDA-MB-436; details: 1000 nM; incubation time: 72 h
In short: as §1

[15] = test system: BT-549; details: incubation time: 72 h
In short: as §1

[16] = test system: HDQ-P1; details: incubation time: 72 h
In short: as §1

[17] = test system: DU-4475; details: 30 nM; incubation time: 72 h
In short: as §1

[18] = test system: CAL-148; details: incubation time: 72 h
In short: as §1

[19] = test system: SK-BR-3; details: incubation time: 72 h; remark: listed apart in the source
In short: as §1

[20] = test system: HCC1143; details: 1000 nM; incubation time: 72 h
In short: as §1

[21] = test system: BT-474; details: incubation time: 72 h; remark: listed apart in the source
In short: as §1

[22] = test system: MFM-223; details: incubation time: 72 h
In short: as §1

[23] = test system: MDA-MB-468; details: incubation time: 72 h
In short: as §1

[24] = test system: HCC1599; details: incubation time: 72 h; remark: listed apart in the source
In short: as §1

[25] = test system: HCC1937; details: incubation time: 72 h; remark: listed apart in the source
Protocol: (§2)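 DSRT, CellTiter-Blue viability, 72 h incubation. Signal is normalised to DMSO and benzethonium chloride controls. Value is the normalised response at dose 3.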

[26] = test system: CAL-85-1; details: incubation time: 72 h; remark: listed apart in the source
Protocol: as §2

[27] = test system: CAL-51; details: incubation time: 72 h; remark: listed apart in the source
Protocol: as §2

[28] = test system: MDA-MB-436; details: incubation time: 72 h
Protocol: as §2

[29] = test system: HDQ-P1; details: incubation time: 72 h; remark: listed apart in the source
Protocol: as §2

[30] = test system: SK-BR-3; details: incubation time: 72 h; remark: listed apart in the source
Protocol: as §2

[31] = test system: HCC1143; details: 100 nM; incubation time: 72 h
Protocol: as §2

[32] = test system: BT-474; details: incubation time: 72 h; remark: listed apart in the source
Protocol: as §2

[33] = test system: HCC1599; details: incubation time: 72 h; remark: listed apart in the source
Protocol: as §2

[34] = test system: MDA-MB-453; details: incubation time: 72 h
In short: as §1

For `Cc1ccc(NC(=O)c2ccc(CN3CCN(C)CC3)cc2)cc1Nc1nccc(-c2cccnc2)n1` [Imatinib], the normalised viability ([1]; 10000 nM) was 107% and 104%, the normalised viability ([2]; 10000 nM) was 88% and the normalised viability ([3]; 100 nM) was 102% and 98.4%. For the same compound, the normalised viability ([4]; 100 nM) was 89.4% and 111%, the normalised viability ([5]; 10000 nM) was 80.8% and 91.9% and the normalised viability ([6]; 10000 nM) was 104% and 96.8%. The normalised viability ([7]; 10000 nM) was 97.8% and 103%, the normalised viability ([8]; 1000 nM) was 92.1% and 110% and the normalised viability ([9]; 1000 nM) was 86.6% and 91.9%. The normalised viability ([10]; 1000 nM) was 80.5% and 85.3%, the normalised viability ([11]; 1000 nM) was 100% and 103% and the normalised viability ([12]; 30 nM) was 91.2% and 88%. For the same compound, the normalised viability ([13]; 30 nM) was 106% and 99.3%, the normalised viability [14] was 74.6% and 90.3% and the normalised viability ([15]; 1000 nM) was 95.8% and 88.7%. The normalised viability ([16]; 30 nM) was 89.2% and 107%, the normalised viability [17] was 104% and 85.4% and the normalised viability ([18]; 30 nM) was 89.8% and 88.6%. The normalised viability ([19]; 1000 nM) was 103% and 115%, the normalised viability [20] was 85.9% and 97% and the normalised viability ([21]; 1000 nM) was 111%. The normalised viability ([22]; 1000 nM) was 104% and 100%, the normalised viability ([23]; 1000 nM) was 106% and 109% and the normalised viability ([24]; 1000 nM) was 109% and 102%. For the same compound, the normalised viability ([25]; 100 nM) was 94.5%, the normalised viability ([26]; 10 nM) was 102% and 92.3% and the normalised viability ([27]; 10 nM) was 106% and 107%. The normalised viability ([28]; 100 nM) was 94.8% and 107%, the normalised viability ([29]; 10 nM) was 106% and 126% and the normalised viability ([30]; 100 nM) was 86.2% and 75.6%. The normalised viability [31] was 85.9% and 82.9%, the normalised viability ([32]; 100 nM) was 103% and 126% and the normalised viability ([33]; 100 nM) was 96.5% and 97.5%.
`CN(C)CCN1C(=O)c2cccc3cc(N)cc(c23)C1=O` [Amonafide] gave a normalised viability ([1]; 10000 nM) of 22.3%, a normalised viability ([2]; 10000 nM) of 29.5% and a normalised viability ([3]; 100 nM) of 104%. It also gave a normalised viability ([4]; 100 nM) of 84.6%, a normalised viability ([5]; 10000 nM) of 20.8% and a normalised viability ([6]; 10000 nM) of 69.3%. For the same compound, the normalised viability ([7]; 10000 nM) was 47.5%, the normalised viability ([8]; 1000 nM) was 67.8% and the normalised viability ([9]; 1000 nM) was 78.7%. It also gave a normalised viability ([10]; 1000 nM) of 69.2%, a normalised viability ([11]; 1000 nM) of 115% and a normalised viability ([12]; 30 nM) of 79.8%. The normalised viability ([13]; 30 nM) was 102%, the normalised viability ([34]; 30 nM) was 85.7% and the normalised viability [14] was 95.7%. For the same compound, the normalised viability ([15]; 1000 nM) was 102%, the normalised viability ([16]; 30 nM) was 104% and the normalised viability [17] was 83.2%. For the same compound, the normalised viability ([18]; 30 nM) was 85.8%, the normalised viability ([19]; 1000 nM) was 98.7% and the normalised viability [20] was 86.3%. The normalised viability ([21]; 1000 nM) was 108%, the normalised viability ([22]; 1000 nM) was 99.3% and the normalised viability ([23]; 1000 nM) was 106%. It also gave a normalised viability ([24]; 1000 nM) of 101%, a normalised viability ([25]; 100 nM) of 109% and a normalised viability ([26]; 10 nM) of 91.6%. For the same compound, the normalised viability ([27]; 10 nM) was 111%, the normalised viability ([28]; 100 nM) was 104% and the normalised viability ([29]; 10 nM) was 105%. It also gave a normalised viability ([30]; 100 nM) of 76%, a normalised viability [31] of 87% and a normalised viability ([32]; 100 nM) of 119%. The normalised viability ([33]; 100 nM) was 102%.
`CO[C@H]1C[C@@H]2CC[C@@H](C)[C@@](O)(O2)C(=O)C(=O)N2CCCC[C@H]2C(=O)O[C@H]([C@H](C)C[C@@H]2CC[C@@H](OCCO)[C@H](OC)C2)CC(=O)[C@H](C)/C=C(\C)[C@@H](O)[C@@H](OC)C(=O)[C@H](C)C[C@H](C)/C=C/C=C/C=C/1C` [Everolimus] was tested, and the normalised viability ([1]; 1000 nM) was 73.9% and 77.5%, the normalised viability ([2]; 1000 nM) was 45.8% and 46.6% and the normalised viability ([3]; 10 nM) was 39.8% and 39.5%. The normalised viability ([4]; 10 nM) was 64.3% and 57.3%, the normalised viability ([5]; 1000 nM) was 55.1% and 36.7% and the normalised viability ([6]; 1000 nM) was 65% and 59.1%. The normalised viability ([7]; 1000 nM) was 86.7% and 68.9%, the normalised viability ([8]; 100 nM) was 48.1% and 68.9% and the normalised viability ([9]; 100 nM) was 54.1% and 36.7%. For the same compound, the normalised viability ([10]; 100 nM) was 48.8% and 48.4%, the normalised viability ([11]; 100 nM) was 62.4% and 51% and the normalised viability ([12]; 3 nM) was 63.9% and 54%. For the same compound, the normalised viability ([13]; 3 nM) was 49.6% and 52.9%, the normalised viability ([34]; 3 nM) was 30.8% and 28.6% and the normalised viability ([15]; 100 nM) was 62.1% and 54.9%. For the same compound, the normalised viability ([16]; 3 nM) was 71.3% and 59.9%, the normalised viability ([18]; 3 nM) was 50.4% and 48.4% and the normalised viability ([19]; 100 nM) was 59.7% and 44.4%. For the same compound, the normalised viability ([21]; 100 nM) was 65.9% and 57.5%, the normalised viability ([22]; 100 nM) was 50% and 45.1% and the normalised viability ([23]; 100 nM) was 72.6% and 66.8%. The normalised viability ([24]; 100 nM) was 87% and 69.7%, the normalised viability ([25]; 10 nM) was 60.5% and 63.5% and the normalised viability ([26]; 1 nM) was 71.8% and 59.9%. For the same compound, the normalised viability ([27]; 1 nM) was 70.1% and 73.5%, the normalised viability ([28]; 10 nM) was 86% and 80.2% and the normalised viability ([29]; 1 nM) was 80.8% and 75%. For the same compound, the normalised viability ([30]; 10 nM) was 48.1% and 51.2%, the normalised viability ([32]; 10 nM) was 65.6% and 61.3% and the normalised viability ([33]; 10 nM) was 81.1% and 87.6%.
